Results from patent US10543286B2, “Methods for increasing platelet count by inhibiting biliverdin IXβ reductase” (The Research Foundation for The State University of New York, priority 2015, dated 2020).

Experiments:
[1] = test system: control or iPSC/BLVRB^S111L cells (NCRM1 iPSCs); experiment: TBHP-induced ROS accumulation in genetically-modified iPSCs (CellROX Green, flow cytometry); format: cell-based; settings: Homo sapiens, 1 hour at 37° C., read-out: concentration causing ROS accumulation in 50% of cells (EC50)
Experimental: FIG. 3i is a bar graph showing ROS expression by genetically-modified NCRM1 iPSCs. About 1×10^5, cells were labeled as in FIG. 2h, and treated (or not) with 200 μM tert-butyl hydroperoxide (TBHP) for 1 hour at 37° C., and ROS-expressing cells were quantitated by flow cytometry after a 60 minute period loading with cell-permeable CellROX Green (500 nM) as indicator (N=6); p-values *<0.05; **<0.01; ***<0.001; ****<0.0001. From left to right, the bars correspond to activity in control cells, activity in cells having BLVRB^WT, and activity in cells having BLVRB^S111L.
Hematopoietic-derived (CD34^+) induced pluripotent stein cells (iPSC) expressing endogenous BLVRB were initially developed as heterozygous models designed to phenocopy zygosity state in subject cohorts. […]
Human CD34^+-derived NCRM1 induced pluripotent stem cells (iPSC) were genetically modified using lentivirus infection (MOI 9) for generation of stable cell lines after puromycin selection (iPSC/BLVRB^S111L, iPSC/BLVRB^WT, iPSC/Control). Oxidation/reduction activity was quantified in vitro using the NADPH-dependent redox coupler resazurin; cells (4×10^4/well) were plated and propagated in mTeSR1 medium and at 24 hours were incubated with resazurin (0.1 v/v) followed by serial spectrofluorimetric detection (530 nm excitation, 590 nm emission) for the reduced resorufin byproduct. […]

[2] = target: T1, biliverdin IX beta reductase (BLVRB) (Homo sapiens, UniProt P30043); experiment: BLVRB flavin reductase inhibition assay (FMN/NADPH, absorbance at 340 nm); format: biochemical; settings: 300 nM recombinant BLVRB, 200 μM FMN, 100 μM NADPH, 100 mM potassium phosphate pH 7.6, 37° C.; read-out: IC50, concentration of inhibitor needed to inhibit the target enzyme by 50% (flavin reductase activity of BLVRB)
T1 construct: BLVRBWT and BLVRBS111L open reading frames were PCR-amplified and directionally-cloned into pGEX-KG expression vector; GST (N, cleaved yes); made in house; LB medium, IPTG induction
T1 sequence (P30043 1-206): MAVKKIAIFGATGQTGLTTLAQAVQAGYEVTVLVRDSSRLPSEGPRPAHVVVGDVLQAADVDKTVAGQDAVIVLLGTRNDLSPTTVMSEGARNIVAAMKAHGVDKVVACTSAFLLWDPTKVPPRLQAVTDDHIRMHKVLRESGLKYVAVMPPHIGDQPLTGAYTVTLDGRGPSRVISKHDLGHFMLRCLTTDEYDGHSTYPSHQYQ
Experimental: In one embodiment, the agent is a. chemical compound. An example of such a compound is described in Example 7. Inhibition of enzyme activity by the compound was tested in a reaction containing 100 mM potassium phosphate, pH 7.6, 200 μM FMN (flavin mononucleotide), 100 μM NADPH.
Reactions were initiated by the addition of 300 nM recombinant BLVRB. Enzymatic activity was monitored by following the decrease in absorbance at 340 nm which corresponds to the oxidation of NADPH to NADP^+. […] (FIG. 9)

`CC(C)(C)OO` [TBHP, tert-butyl hydroperoxide] was tested, and the EC50 [1] was 200 µM.
With `COc1ccc2nc3cc(Cl)ccc3c(Nc3ccc(O)c(CN4CCN(C)CC4)c3)c2c1` [compound 1301] the IC50 [2] was 30.7 µM.
